Laboratory results as given in ChEMBL document CHEMBL1138587, “A new class of 5-HT2B antagonists possesses favorable potency, selectivity, and rat pharmacokinetic properties” (Bioorg Med Chem Lett, 2009).
Converted amounts (≈) assume the structure as drawn. The source made the active and inactive calls. No cut-off for these calls is given here.

Legend:
[1] = target: T1, 5-hydroxytryptamine receptor 2B (Homo sapiens, UniProt P41595); assay: Antagonist activity at 5-HT2B receptor expressed in CHOK1 cells assessed as inhibition of serotonin-induced intracellular Ca2+ flux by aequorin luminescence assay; type: functional, cell-based, CHO-K1
T1 sequence (P41595 whole entry): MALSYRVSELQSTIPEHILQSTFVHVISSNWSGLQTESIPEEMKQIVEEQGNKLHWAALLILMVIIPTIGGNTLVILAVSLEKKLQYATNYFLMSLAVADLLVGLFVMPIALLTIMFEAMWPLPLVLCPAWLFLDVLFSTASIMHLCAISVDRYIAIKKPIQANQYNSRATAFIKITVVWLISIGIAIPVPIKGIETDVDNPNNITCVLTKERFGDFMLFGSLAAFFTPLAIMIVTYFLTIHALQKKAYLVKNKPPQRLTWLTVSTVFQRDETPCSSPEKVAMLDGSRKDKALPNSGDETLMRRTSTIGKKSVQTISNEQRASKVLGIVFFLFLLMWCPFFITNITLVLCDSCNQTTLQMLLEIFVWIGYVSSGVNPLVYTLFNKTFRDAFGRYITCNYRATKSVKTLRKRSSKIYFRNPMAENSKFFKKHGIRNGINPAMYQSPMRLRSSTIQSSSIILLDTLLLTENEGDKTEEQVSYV

[2] = Selectivity for 5-HT2B receptor over 5-HT2C receptor
[3] = Selectivity for 5-HT2B receptor over 5-HT2A receptor
[4] = target: T1, 5-hydroxytryptamine receptor 2B; assay: Antagonist activity at 5-HT2B receptor expressed in CHOK1 cells assessed as inhibition of serotonin-induced intracellular Ca2+ flux by aequorin luminescence assay in presence of 4% human serum albumin; type: functional, cell-based, CHO-K1
[5] = Oral bioavailability in Sprague-Dawley rat; type: ADME, organism-based; conditions: in vivo
[6] = Cmax in Sprague-Dawley rat 10 mg/kg, po; type: ADME, organism-based; design: dose 10 mg/kg, route oral; conditions: in vivo
[7] = AUC in Sprague-Dawley rat at 10 mg/kg, po; type: ADME, organism-based; design: dose 10 mg/kg, route oral; conditions: plasma
[8] = target: T2, 5-hydroxytryptamine receptor 2C (Homo sapiens) (UniProt P28335); assay: Antagonist activity at 5-HT2C receptor up to 10 uM by FLIPR assay; type: functional
T2 sequence (whole entry): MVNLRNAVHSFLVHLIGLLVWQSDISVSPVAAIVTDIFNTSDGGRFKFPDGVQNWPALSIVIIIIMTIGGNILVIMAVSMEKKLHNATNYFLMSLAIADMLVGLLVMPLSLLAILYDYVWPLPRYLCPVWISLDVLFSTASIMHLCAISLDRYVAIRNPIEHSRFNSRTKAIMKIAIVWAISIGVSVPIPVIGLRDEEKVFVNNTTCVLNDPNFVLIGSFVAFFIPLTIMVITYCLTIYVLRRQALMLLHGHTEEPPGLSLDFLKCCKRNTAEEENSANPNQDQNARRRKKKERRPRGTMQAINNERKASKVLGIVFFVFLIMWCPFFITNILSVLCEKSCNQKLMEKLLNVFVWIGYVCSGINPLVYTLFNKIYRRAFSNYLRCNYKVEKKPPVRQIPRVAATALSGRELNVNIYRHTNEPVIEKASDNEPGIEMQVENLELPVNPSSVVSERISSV

[9] = target: 5-hydroxytryptamine receptor 2A (Homo sapiens) (UniProt P28223); assay: Antagonist activity at 5-HT2A receptor up to 10 uM by FLIPR assay; type: functional
Sequence of 5-hydroxytryptamine receptor 2A (Homo sapiens) (P28223 whole entry): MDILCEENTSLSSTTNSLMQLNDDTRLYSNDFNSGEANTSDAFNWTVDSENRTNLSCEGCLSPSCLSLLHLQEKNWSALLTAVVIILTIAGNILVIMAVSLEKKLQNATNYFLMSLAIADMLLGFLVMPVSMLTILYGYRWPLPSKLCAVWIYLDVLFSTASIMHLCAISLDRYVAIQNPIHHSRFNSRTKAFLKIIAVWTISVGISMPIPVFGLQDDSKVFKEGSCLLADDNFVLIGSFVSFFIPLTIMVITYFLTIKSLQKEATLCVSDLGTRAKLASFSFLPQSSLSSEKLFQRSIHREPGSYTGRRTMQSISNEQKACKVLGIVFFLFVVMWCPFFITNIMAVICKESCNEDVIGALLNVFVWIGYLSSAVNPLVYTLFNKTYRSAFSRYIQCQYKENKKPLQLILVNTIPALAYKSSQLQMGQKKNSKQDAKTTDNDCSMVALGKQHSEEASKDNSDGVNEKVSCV

[10] = Inhibition of dopamine D4.2 receptor at 10 uM
[11] = Protein binding in plasma by dialysis method; type: ADME, cell-free; conditions: read-out: PPB (converted)
[12] = Aqueous solubility of compound at pH 7.4; type: physicochemical; conditions: aqueous medium
[13] = Oral bioavailability in Wistar rat; type: ADME, organism-based; conditions: in vivo
[14] = tested on: Rattus norvegicus; assay: Hepatic blood flow in Wistar rat at 1 mg/kg, iv; type: ADME, organism-based, Liver; design: dose 1 mg/kg, route intravenous; conditions: in vivo
[15] = Cmax in Wistar rat 10 mg/kg, po; type: ADME, organism-based; design: dose 10 mg/kg, route oral; conditions: in vivo
[16] = AUC in Wistar rat at 10 mg/kg, po; type: ADME, organism-based; design: dose 10 mg/kg, route oral; conditions: plasma

## Cc1cc2c(cc1Cl)N(C(=O)Nc1cccc3ncccc13)CC2
[1]
  IC50: 13 nM
[2]
  Selectivity ratio: 0.5
[3]
  Selectivity ratio: 7
[4]
  IC50: 64 nM

## O=S(=O)(c1ccc(-c2ccccc2)cc1)N1CCC(Cc2ncc[nH]2)CC1
[1]
  IC50: 6.5 nM
[4]
  IC50: 990 nM

## O=C(c1ccc(-c2ccc(F)cc2)cc1)N1CCC(c2ncc[nH]2)CC1
[5]
  bioavailability: 100%
[6]
  Cmax: 1700 ng/mL
[7]
  AUC: 14000 ng·h/mL

## NC(=O)c1ccc(-c2ccc(C(=O)N3CCC(c4nc5ccccc5[nH]4)CC3)cc2)cc1
[1]
  IC50: > 2400 nM
[4]
  IC50: > 24000 nM

## O=C(c1ccc(-c2ccccc2)cc1)N1CCC(Cc2ncc[nH]2)CC1
[1]
  IC50: 0.4 nM
[4]
  IC50: 14 nM

## O=S(=O)(c1ccc(-c2ccccc2)cc1)N1CCC(c2ncc[nH]2)CC1
[1]
  IC50: 0.3 nM
[4]
  IC50: 32 nM

## O=S(=O)(c1ccc(-c2ccccc2)cc1)N1CCC(Cc2nc3ccccc3[nH]2)CC1
[1]
  IC50: 1100 nM
[4]
  IC50: > 23000 nM

## O=C(c1ccc(N2CCCCC2)cc1)N1CCC(c2nc3ccccc3[nH]2)CC1
[1]
  IC50: 48 nM
[4]
  IC50: 12000 nM

## NC(=O)C1CCN(C(=O)c2ccc(-c3ccccc3)cc2)CC1
[1]
  IC50: > 6500 nM

## Cn1c(C2CCN(C(=O)c3ccc(-c4ccccc4)cc3)CC2)nc2ccccc21
[1]
  IC50: 80 nM
[4]
  IC50: 10000 nM

## c1ccc(-c2ccc(CN3CCC(c4nc5ccccc5[nH]4)CC3)cc2)cc1
[1]
  IC50: 65 nM
[4]
  IC50: 7300 nM

## O=C(c1ccc(-c2ccccc2)cc1)N1CCC(c2nc3ccccc3[nH]2)CC1
[5]
  bioavailability: 130%
[8]
  Activity: inactive
[6]
  Cmax: 5000 ng/mL
[7]
  AUC: 25000 ng·h/mL
[9]
  Activity: inactive
[1]
  IC50: 2.4 nM
[10]
  inhibition: 99%
[2]
  Selectivity ratio: > 10000
[11]
  fraction unbound: 0.001
[3]
  Selectivity ratio: > 10000
[12]
  solubility: 3 µg/mL (≈ 7.86 µM)
[4]
  IC50: 1200 nM

## O=C(c1ccc(-c2ccccc2)cc1)N1CCN(c2nc3ccccc3[nH]2)CC1
[1]
  IC50: 6900 nM
[4]
  IC50: > 25000 nM

## COc1cc(-c2ccccc2)ccc1C(=O)N1CCC(c2nc3ccccc3[nH]2)CC1
[1]
  IC50: 4 nM
[4]
  IC50: 1200 nM

## O=C(c1ccc(-c2ccccc2)cc1)N1CCC(c2nc3ccccc3o2)CC1
[1]
  IC50: 1500 nM
[4]
  IC50: > 20000 nM

## O=C(c1ccc(-c2ccccc2)cc1)N1CCC(Cc2nc3ccccc3[nH]2)CC1
[1]
  IC50: 2.3 nM
[4]
  IC50: 300 nM

## O=C(c1ccc(-c2ccncc2)cc1)N1CCC(c2nc3ccccc3[nH]2)CC1
[1]
  IC50: > 1300 nM
[4]
  IC50: > 13000 nM

## O=C(c1ccc(-c2cccnc2)cc1)N1CCC(c2nc3ccccc3[nH]2)CC1
[1]
  IC50: 340 nM
[4]
  IC50: > 14000 nM

## O=C(c1ccc(-c2ccccc2)cc1)N1CCC(c2ncc[nH]2)CC1
[11]
  fraction unbound: 0.001

## O=C(c1ccc(-c2ccccc2)cn1)N1CCC(c2nc3ccccc3[nH]2)CC1
[1]
  IC50: 12 nM
[4]
  IC50: > 2400 nM

## O=C(c1ccc(-c2ccccc2)[nH]c1=O)N1CCC(c2nc3ccccc3[nH]2)CC1
[1]
  IC50: 22 nM
[4]
  IC50: > 3000 nM

## O=C(c1ccc(-c2ccc(OC(F)(F)F)cc2)cc1)N1CCC(c2nc3ccccc3[nH]2)CC1
[1]
  IC50: 95 nM
[4]
  IC50: 16000 nM

## O=C(c1ccc(Br)cc1)N1CCC(c2nc3ccccc3[nH]2)CC1
[1]
  IC50: > 13000 nM
[4]
  IC50: > 26000 nM

## O=S(=O)(c1ccc(-c2ccc(F)cc2)cc1)N1CCC(c2ncc[nH]2)CC1
[5]
  bioavailability: 54%
[6]
  Cmax: 870 ng/mL
[7]
  AUC: 2300 ng·h/mL
[1]
  IC50: 0.6 nM
[4]
  IC50: 30 nM

## O=S(=O)(c1ccc(-c2ccccc2)cc1)N1CCC(c2nc3ccccc3[nH]2)CC1
[1]
  IC50: 1.9 nM
[4]
  IC50: 840 nM

## O=C(c1ccc(C2CCCCC2)cc1)N1CCC(c2nc3ccccc3[nH]2)CC1
[1]
  IC50: 31 nM
[4]
  IC50: 1100 nM

## O=C(c1ccc(-c2ccc(F)cc2)cc1)N1CCC(Cc2ncc[nH]2)CC1
[5]
  bioavailability: 118%
[6]
  Cmax: 600 ng/mL
[7]
  AUC: 6500 ng·h/mL

## O=C(c1ccc(N2CCOCC2)cc1)N1CCC(c2nc3ccccc3[nH]2)CC1
[1]
  IC50: 2300 nM
[4]
  IC50: > 26000 nM

## COc1ccc(-c2ccc(C(=O)N3CCC(c4nc5ccccc5[nH]4)CC3)cc2)cc1
[1]
  IC50: 3.4 nM
[4]
  IC50: 3200 nM

## CCOc1nc(-c2ccccc2)ncc1C(=O)N1CCC(c2nc3ccccc3[nH]2)CC1
[1]
  IC50: 6 nM
[4]
  IC50: 910 nM

## O=C(C1CCC(c2ccccc2)CC1)N1CCC(c2nc3ccccc3[nH]2)CC1 (centres undefined)
[1]
  IC50: 610 nM
[4]
  IC50: > 20000 nM

## O=C(c1cnc(-c2ccccc2)nc1)N1CCC(c2nc3ccccc3[nH]2)CC1
[1]
  IC50: 2.5 nM
[11]
  fraction unbound: 0.009
[4]
  IC50: 710 nM

## O=C(c1ccc(-c2ccccc2)cc1)N1CC(c2nc3ccccc3[nH]2)C1
[1]
  IC50: 150 nM
[4]
  IC50: > 2800 nM

## CC(C)c1cc(-c2ccc(F)c3ccccc23)nc(N)n1
[13]
  bioavailability: 10%
[14]
  QH: 29%
[15]
  Cmax: 470 ng/mL
[1]
  IC50: 0.7 nM
[2]
  Selectivity ratio: 92
[11]
  fraction unbound: 0.001
[16]
  AUC: 810 ng·h/mL
[3]
  Selectivity ratio: 2000
[4]
  IC50: 19 nM

## O=C(c1ccc(-c2ncccn2)cc1)N1CCC(c2nc3ccccc3[nH]2)CC1
[1]
  IC50: 120 nM
[4]
  IC50: > 2700 nM

## O=C(c1ccccc1)N1CCC(c2nc3ccccc3[nH]2)CC1
[1]
  IC50: > 10000 nM
[4]
  IC50: > 10000 nM

## N#Cc1cc(CN2CCC(Nc3ncnc4sc(Cl)cc34)CC2)ccc1F [PRX-08066 FREE BASE]
[13]
  bioavailability: 17%
[14]
  QH: 82%
[15]
  Cmax: 240 ng/mL
[1]
  IC50: 3.5 nM
[2]
  Selectivity ratio: > 3000
[11]
  fraction unbound: 0.01
[16]
  AUC: 500 ng·h/mL
[3]
  Selectivity ratio: > 3000
[4]
  IC50: 270 nM
